# pEC50: −log10 of the molar value. Where a name gives a salt, the structure may show the parent alone.
# Molecular target: T1, human M2 receptor (Homo sapiens, UniProt P08172)
# T1 construct: expressed in transfected cells; host or cells: CHO-DUKX (CHO-DUKX-M2-GIRK)
# T1 sequence (P08172 1-466): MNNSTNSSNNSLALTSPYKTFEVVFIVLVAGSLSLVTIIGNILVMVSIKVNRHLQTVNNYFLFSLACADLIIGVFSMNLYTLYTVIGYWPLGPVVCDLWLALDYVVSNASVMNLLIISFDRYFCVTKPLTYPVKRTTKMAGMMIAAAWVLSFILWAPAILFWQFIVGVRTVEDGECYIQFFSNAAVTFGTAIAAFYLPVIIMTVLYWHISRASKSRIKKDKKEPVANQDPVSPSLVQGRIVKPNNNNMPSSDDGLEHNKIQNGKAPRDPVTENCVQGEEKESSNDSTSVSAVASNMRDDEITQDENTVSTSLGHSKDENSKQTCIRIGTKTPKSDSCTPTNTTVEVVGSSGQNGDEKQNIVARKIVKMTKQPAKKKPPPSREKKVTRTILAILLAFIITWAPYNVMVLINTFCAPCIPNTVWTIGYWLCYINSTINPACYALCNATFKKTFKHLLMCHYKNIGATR
# Assay: Functional M2-GIRK1/4 activation test: allosteric potency (EC50) and efficiency at EC20 acetylcholine
# Type: cell-based
# Conditions: CHO-DUKX-M2-GIRK cells; for pEC50: voltage-sensitive dye, acetylcholine at EC20, in some cases mean of two or more determinations
# Text: The binding of orthosteric agonists (endogenous ligand: acetylcholine) to the M2 receptor leads to receptor activation or a change in conformation of the receptor in the manner of a shift in equilibrium in favour of the active receptor conformation.
# The agonist-induced change in conformation of the M2 receptor results in a Gαi protein activation. […] Under physiological conditions, the result is then a selective efflux of potassium from the cell along the electrochemical gradient. […] The extent of hyperpolarization can therefore be regarded as a measure of the activation of the M2 receptor.
# The test cell used is a recombinant CHO-DUKX cell line which has been stably transfected with cDNA coding for the human M2 receptor and with cDNA coding for both GIRK1/4 subunits (CHO-DUKX-M2-GIRK). The transmembrane potential, or the relative changes in the transmembrane potential as a function of substance addition or M2 activation, is determined by means of a voltage-sensitive dye (FLIPR Membrane Potential Assay Kit Blue, Molecular Devices #R8034) and the measurement of cell fluorescence using a proprietary fluorescence imaging instrument.
# The sowing medium consisted of MEM alpha medium (supplemented with 5% PCS, 2% Glutamax, no genticin).
# For the particular measurement, the medium was removed and the cells were laden with the volt-age-sensitive dye for at least 6 min at room temperature (30 μl of loading buffer per 384-well). This was followed, in a first measurement, by the determination of the fluorescence for the resting transmembrane potential for a period of 5 sec. Thereafter, 10 μl in each case of the test substances diluted in loading buffer were added, followed by a second measurement to determine the transmembrane potential for a period of 50 sec in 1 sec increments. Finally, the cells were admixed with 10 μl of agonist solution (acetylcholine dissolved in loading buffer). Acetylcholine was used at the concentration corresponding to the EC20, which had been determined in a preliminary test. The M2-mediated GIRK1/4 activation or hyperpolarization was then monitored in a third measurement over a period of 60 sec. The EC50 value (degree of allosteric potency of test compound) and the efficiency (measure of the boosting of the acetylcholine effect at an EC20 acetylcholine concentration) were determined with the aid of a 4-parameter logistic function (Hill function).
# [1] = boosting of the acetylcholine effect at EC20 acetylcholine concentration
pEC50,Emax [1] [%],Efficiency [1] [%],Structure (SMILES)
8.39,88,–,"CN(C)c1nc2c(cc1F)c(=O)c(C(=O)NC(C)(C)C(F)(F)F)cn2-c1c(F)cc(F)cc1F [Example 62, 7-(Dimethylamino)-6-fluoro-4-oxo-N-(1,1,1-trifluoro-2-methylpropan-2-yl)-1-(2,4,6-trifluoro-phenyl)-1,4-dihydro-1,8-naphthyridine-3-carboxamide]"
8.01,90,–,"CC(NC(=O)c1cn(-c2c(F)cc(F)cc2F)c2nc(N3CCC4(C3)NC(=O)N(C)C4=O)c(F)cc2c1=O)C(F)(F)C(F)(F)F (centres unmarked) [Example 234, 6-Fluoro-7-(3-methyl-2,4-dioxo-1,3,7-triazaspiro[4.4]non-7-yl)-4-oxo-N-[3,3,4,4,4-pentafluorobutan-2-yl]-1-(2,4,6-trifluorophenyl)-1,4-dihydro-1,8-naphthyridine-3-carboxamide]"
8.19,100,–,"CC(C)(CC(F)(F)F)NC(=O)c1cn(-c2c(F)cc(F)cc2F)c2nc(N3C[C@@H](O)[C@@H](O)C3)c(F)cc2c1=O [Example 91, 7-[(3R,4S)-3,4-Dihydroxypyrrolidin-1-yl]-6-fluoro-4-oxo-N-(4,4,4-trifluoro-2-methylbutan-2-yl)-1-(2,4,6-trifluorophenyl)-1,4-dihydro-1,8-naphthyridine-3-carboxamide]"
8.89,95,–,"CCC(NC(=O)c1cn(-c2c(F)cc(F)cc2F)c2nc(N3CC(CO)(CO)C3)c(F)cc2c1=O)C(F)(F)C(F)(F)F (racemic) [Example 171, 7-[3,3-Bis(hydroxymethyl)azetidin-1-yl]-6-fluoro-4-oxo-N-[1,1,1,2,2-pentafluoropentan-3-yl]-1-(2,4,6-trifluorophenyl)-1,4-dihydro-1,8-naphthyridine-3-carboxamide]"
8.44,100,–,"CN(C)c1nc2c(cc1F)c(=O)c(C(=O)NC(C)(C)C)cn2-c1c(F)cc(F)cc1F [Example 60, N-tert-Butyl-7-(dimethylamino)-6-fluoro-4-oxo-1-(2,4,6-trifluorophenyl)-1,4-dihydro-1,8-naphthyridine-3-carboxamide]"
7.11,89,–,"CC[C@H](NC(=O)c1cn(-c2c(F)cc(F)cc2F)c2nc(N3CCCC[C@H]3CO)c(F)cc2c1=O)C(F)(F)F [Example 57, 6-Fluoro-7-[(2S)-2-(hydroxymethyl)piperidin-1-yl]-4-oxo-N-[(2S)-1,1,1-trifluorobutan-2-yl]-1-(2,4,6-trifluorophenyl)-1,4-dihydro-1,8-naphthyridine-3-carboxamide]"
7.81,100,–,"CCC(COC(F)(F)F)NC(=O)c1cn(-c2c(F)cc(F)cc2F)c2nc(N3C[C@@H](O)[C@@H](O)C3)c(F)cc2c1=O (mixture of isomers) [Example 95, 7-[(3R,4S)-3,4-Dihydroxypyrrolidin-1-yl]-6-fluoro-4-oxo-N-[1-(trifluoromethoxy)butan-2-yl]-1-(2,4,6-trifluorophenyl)-1,4-dihydro-1,8-naphthyridine-3-carboxamide]"
7.89,100,–,"CC(C)(C)C(NC(=O)c1cn(-c2c(F)cc(F)cc2F)c2nc(N3CC4(COC4)C3)c(F)cc2c1=O)C(F)(F)C(F)(F)F (single isomer, unassigned) [Example 213, 6-Fluoro-7-(2-oxa-6-azaspiro[3.3]hept-6-yl)-4-oxo-N-[1,1,1,2,2-pentafluoro-4,4-dimethylpentan-3-yl]-1-(2,4,6-trifluorophenyl)-1,4-dihydro-1,8-naphthyridine-3-carboxamide]"
6.92,73,–,"CC(NC(=O)c1cn(-c2c(F)cc(F)cc2F)c2nc(N3CCNCC(O)C3)c(F)cc2c1=O)C(F)(F)C(F)(F)F (centres unmarked) [Example 200, 6-Fluoro-7-[6-hydroxy-1,4-diazepan-1-yl]-4-oxo-N-[3,3,4,4,4-pentafluorobutan-2-yl]-1-(2,4,6-trifluorophenyl)-1,4-dihydro-1,8-naphthyridine-3-carboxamide]"
–,100,–,"CC(NC(=O)c1cn(-c2c(F)cc(F)cc2F)c2nc(N3C[C@@H](O)[C@@H](O)C3)c(F)cc2c1=O)C(F)(F)C(F)(F)F (mixture of isomers) [Example 92, 7-[(3R,4S)-3,4-Dihydroxypyrrolidin-1-yl]-6-fluoro-4-oxo-N-[3,3,4,4,4-pentafluorobutan-2-yl]-1-(2,4,6-trifluorophenyl)-1,4-dihydro-1,8-naphthyridine-3-carboxamide]"
7.85,95,–,"COC(=O)C12CCC(NC(=O)c3cn(-c4c(F)cc(F)cc4F)c4nc(N5C[C@@H](O)[C@H](O)C5)c(F)cc4c3=O)(CC1)C2 [Example 86, Methyl 4-[({7-[(3R,4R)-3,4-dihydroxypyrrolidin-1-yl]-6-fluoro-4-oxo-1-(2,4,6-trifluoro-phenyl)-1,4-dihydro-1,8-naphthyridin-3-yl}carbonyl)amino]bicyclo[2.2.1]heptane-1-carboxylate]"
7.42,97,–,"CC[C@H](NC(=O)c1cn(-c2c(F)cccc2F)c2nc(N3C[C@@H](O)[C@H](O)C3)c(F)cc2c1=O)C(F)(F)F [Example 3, 1-(2,6-Difluorophenyl)-7-[(3R,4R)-3,4-dihydroxypyrrolidin-1-yl]-6-fluoro-4-oxo-N-[(2S)-1,1,1-trifluorobutan-2-yl]-1,4-dihydro-1,8-naphthyridine-3-carboxamide]"
8.41,95,–,"CC(C)(C)NC(=O)c1cn(-c2c(F)cc(F)cc2Cl)c2nc(N3C[C@@H](O)[C@H](O)C3)c(F)cc2c1=O [Example 74, N-tert-Butyl-1-(2-chloro-4,6-difluorophenyl)-7-[(3R,4R)-3,4-dihydroxypyrrolidin-1-yl]-6-fluoro-4-oxo-1,4-dihydro-1,8-naphthyridine-3-carboxamide]"
7.49,92,–,"O=C(N[C@@H](C1CC1)C(F)(F)F)c1cn(-c2c(F)cc(F)cc2Cl)c2nc(N3CC4(COC4)C3)c(F)cc2c1=O [Example 68, 1-(2-Chloro-4,6-difluorophenyl)-N-[(1S)-1-cyclopropyl-2,2,2-trifluoroethyl]-6-fluoro-7-(2-oxa-6-azaspiro[3.3]hept-6-yl)-4-oxo-1,4-dihydro-1,8-naphthyridine-3-carboxamide trifluoroacetate]"
6.96,91,–,"CN1CCN(c2nc3c(cc2F)c(=O)c(C(=O)N[C@@H](C2CC2)C(F)(F)F)cn3-c2c(F)cc(F)cc2F)C(CO)C1 (stereo partly drawn) [Example 176, N-[(1S)-1-Cyclopropyl-2,2,2-trifluoroethyl]-6-fluoro-7-[2-(hydroxymethyl)-4-methylpiperazin-1-yl]-4-oxo-1-(2,4,6-trifluorophenyl)-1,4-dihydro-1,8-naphthyridine-3-carboxamide]"
8.89,–,83,"O=C(N[C@@H](C1CC1)C(F)(F)F)c1cn(-c2c(F)cc(F)cc2Cl)c2nc(N3C[C@@H](O)[C@H](O)C3)c(F)cc2c1=O (single isomer, unassigned) [Example 52]"
5.80,81,–,"O=C(Nc1c(Cl)cccc1Cl)c1cn(-c2ccc(F)cc2F)c2ncc(Cl)cc2c1=O [Example 133, 6-Chloro-N-(2,6-dichlorophenyl)-1-(2,4-difluorophenyl)-4-oxo-1,4-dihydro-1,8-naphthyridine-3-carboxamide]"
7.45,96,–,"O=C(N[C@@H](C1CC1)C(F)(F)F)c1cn(-c2c(F)cccc2F)c2nc(N3C[C@@H](O)[C@H](O)C3)c(F)cc2c1=O [Example 2, N-[(1S)-1-Cyclopropyl-2,2,2-trifluoroethyl]-1-(2,6-difluorophenyl)-7-[(3R,4R)-3,4-dihydroxypyrrolidin-1-yl]-6-fluoro-4-oxo-1,4-dihydro-1,8-naphthyridine-3-carboxamide]"

# Source: patent US11472803B2, “7-substituted 1-aryl-naphthyridine-3-carboxylic acid amides and use thereof” (Bayer Aktiengesellschaft, priority 2016, dated 2022)
